Experimental data as given in patent US9540373B2, “Substituted spirocycles” (Boehringer Ingelheim International GmbH, priority 2014, dated 2017).

Columns and labels:
[1] = Determination of metabolic stability with human liver microsomes; format: in vitro ADME; conditions: pH 7.6; pooled human liver microsomes, 1 mg/ml protein, 1 μM compound, 37° C., NADPH; read-out: In vitro stability in human liver microsome incubations t1/2
Experimental: Determination of Metabolic Stability with Human Liver Microsomes
The metabolic degradation of the test compound is assayed at 37° C. with pooled human liver microsomes. The final incubation volume of 100 μl per time point contains TRIS buffer pH 7.6 (0.1 M), magnesium chloride (5 mM), microsomal protein (1 mg/ml) and the test compound at a final concentration of 1 μM. Following a short preincubation period at 37° C., the reactions are initiated by addition of beta-nicotinamide adenine dinucleotide phosphate, reduced form (NADPH, 1 mM) and terminated by transferring an aliquot into acetonitrile after different time points. Additionally, the NADPH-independent degradation is monitored in incubations without NADPH, terminated at the last time point. The [%] remaining test compound after NADPH independent incubation is reflected by the parameter c (control) (metabolic stability). The quenched incubations are pelleted by centrifugation (10′000 g, 5 min.) An aliquot of the supernatant is assayed by LC-MS/MS for the amount of parent compound.
The half-life (t1/2 INVITRO) is determined by the slope of the semilogarithmic plot of the concentration-time profile. The intrinsic clearance (CL_INTRINSIC) is calculated by considering the amount of protein in the incubation: CL_INTRINSIC [μl/min/mg protein]=(ln 2/(half-life [min]*protein content [mg/ml]))*1′000.

[2] = test system: neutrophil elastase activity in BALF cell lysate; assay: Target engagement mouse model: neutrophil elastase activity in BALF cell lysate after LPS challenge; format: in vivo; conditions: female Crl:NMRI mice, 0.5 mg/kg bid for 7 days, oral, LPS inhalation challenge
Experimental: Target Engagement Mouse Model Compound Treatment:
To monitor the effect of the test compounds on neutrophil elastase activity in peripheral neutrophils, female Crl:NMRI mice were treated as follows:
Group 1 (6 animals): 0.5 mg/kg test compound in 0.5% Natrosol (pH 2-3)
Group 2 (6 animals): 0.5% Natrosol (pH 2-3)
Group 3 (2 animals): 0.5% Natrosol (pH 2-3)
Test compounds or Natrosol solution were applied on Monday to Friday at 7:00 am and 4:00 pm each day of the first week of the study and on Monday and Tuesday (7:00 am and 4:00 pm) the second week. Test compounds or Natrosol were applied orally.
LPS Challenge and Bronchioalveolar Lavage Preparation: […]
4 hours after the LPS challenge a bronchioalveolar lavage using 2×1 ml Hank's salt solution per animal was prepared from all animals and the cell numbers in the lavage fluid determined using a Sysmex XT-1800i. […]
NE activity in the BALF (bronchioalveolar lavage fluid) cell lysate was measured using the fluorescent NE substrate MeOSuc-Ala-Ala-Pro-Val-AMC (Bachem): 10 μl cell lysate were mixed with 5 μl assay buffer (20 mM Tris pH 7.5, 100 mM NaCl, 0.1% human serum albumin) and 5 μl substrate (1 mM in assay buffer) in a 384 well plate (Optiplate 384f, PerkinElmer). The reaction mixture was incubated for 60 min at room temperature and the fluorescence measured (360 nm excitation, 460 nm emission). […]

[3] = target: recombinant human DPPI (Cathepsin C) (Homo sapiens (Human), UniProt P53634); assay: Inhibition of human DPPI (Cathepsin C); format: biochemical; conditions: recombinant human DPPI, substrate Gly-Arg-AMC, pH 6.0; read-out: Inhibition of DPPI IC50
Experimental: Inhibition of Human DPPI (Cathepsin C)
The analysis of the data was performed by calculating the percentage of fluorescence in the presence of test compound in comparison to the fluorescence of the vehicle control after 20 subtracting the background fluorescence using the following formula: (RFU(sample)−RFU(background))*100/(RFU(control)−RFU(background))
Data from these calculations were used to generate IC50 values for inhibition of DPPI, respectively.

[4] = test system: neutrophil elastase activity in U937 cells; assay: Determination of neutrophil elastase activity in U937 cytosolic lysate preparation after incubation with test compound; format: cell-based; conditions: Homo sapiens, U-937; U937 cells incubated 48 hours with compound, NE activity in lysate; read-out: Reduction of NE-activity in U937 cells IC50
Experimental: Determination of Neutrophil Elastase Activity in U937 Cytosolic Lysate Preparation after Incubation with Test Compound Materials:
24 well Nunclon cell culture plates (No. 142475) and 96 well plates (No. 267245) were from Nunc.
Dimethylsulfoxid (DMSO) was from Sigma (Prod. No. D8418). Nonidet-P40 (NP40) was from USBiological (Prod. No. N3500)
Substrate, specific for Neutrophil elastase, was from Bachem (MeOSuc-Ala-Ala-Pro-Val-AMC; Prod. No. I-1270).
Human neutrophil elastase was from Calbiochem (Prod. No. 324681)
Tris-buffer (100 mM Tris; 1M NaCl; pH 7.5)
Tris-buffer+HSA 0.1%; Human Serum Albumin from Calbiochem (Cat#. 126658)
Serine-protease buffer (20 mM Tris; 100 mM NaCl; pH 7.5)+0.1% HSA
Serine protease lysis buffer: 20 mM Tris-HCl; 100 mM NaCl pH 7.5; +0.2% Nonidet-P40;
PBS: phosphate buffered saline, without Ca and Mg, from Gibco
U937 from ECACC (Cat. No. 85011440) cultured in suspension at 37° C. and 5% CO2.
Cell density: 0.2-1 Mio. Cells/ml.
Medium: RPMI1640 GlutaMAX (No. 61870) with 10% FCS from Gibco
Cell Seeding and Treatment:
Compounds in 100% DMSO were diluted in Medium (−FCS) with 10% DMSO and further diluted according to the experiment planned.
20 μl of the compound solution was transferred in the respective wells of the 24 well plate and diluted with 2 ml cell suspension/well containing 1×10^5 cells/ml (final concentration of DMSO=0.1%). Compound dilution factor=100
Compounds (up to 7 concentrations) were tested in triplicates with 3 wells for the DMSO 0.1% control, incubated for 48 hours without medium change at 37° C., 5% CO2 and 95% relative humidity.
Cell Harvesting and Cell Lysate:
Transfer the cell suspension in 2 ml 96 well assay block. Separate cells from medium by centrifugation (500×g; 10 min; RT); discard the supernatant. Resuspend in 1 ml PBS; centrifugation (500×g; 10 min; RT); wash cells twice with PBS. Add 80 μl Serine protease lysis buffer (ice cold) to the cell pellet; resuspend the pellet and store on ice for 10 minutes. Remove debris by centrifugation at 1000×g for 10 min at 4° C. Transfer 80-100 μl lysate supernatant in 96 well plate and store immediately at −80° C.
Neutrophil Elastase Activity Assay:
Frozen lysates were thaw at 37° C. for 10 minutes and stored on ice. Protein content was determined with Bradford protein assay. Lysates were diluted to 0.2-0.5 mg/ml protein in serine protease buffer+HSA.
Standard: NE (100 μg/ml stock solution in Tris-buffer; stored at −80° C.) was diluted in Tris-buffer+HSA to 750 ng/ml, and further serially diluted 1:2 for the standard curve. Buffer, blank, standard and lysate samples were transferred into 384 well plate
Blank: 5 μl Tris-buffer+10 μl Serine protease buffer+5 μl Substrate
Standard: 5 μl Tris-buffer+10 μl NE (diff. conc.)+5 μl Substrate
Lysate: 5 μl Tris-buffer+10 μl Lysat+5 μl Substrate
The increase in fluorescence (Ex360 nm/Em 460 nm) is determined after 30 minutes with a Molecular Device Spectramax M5 Fluorescence Reader. The result is interpolated to ng/mg lysate protein using excel formula functions. Percent inhibition in the compound-treated lysate samples is calculated relative to the DMSO-treated control-sample (100−(compound-sample*100)/control-sample)
A test compound will give values between 0% and 100% inhibition of neutrophil elastase. IC50 is calculated using Graphpad Prism; nonlinear fitting (log(inhibitor) vs. response—Variable slope). The IC50 value is interpolated as the concentration of test compound which leads to a neutrophil elastase activity reduction of 50% (relative to the DMSO-treated control).

Chain of recombinant human DPPI (Cathepsin C) (P53634 231-394): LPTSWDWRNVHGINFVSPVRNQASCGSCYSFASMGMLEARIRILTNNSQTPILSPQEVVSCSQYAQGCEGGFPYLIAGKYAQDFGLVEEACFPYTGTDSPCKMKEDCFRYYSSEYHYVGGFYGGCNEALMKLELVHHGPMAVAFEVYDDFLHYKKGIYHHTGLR
Chain of recombinant human DPPI (Cathepsin C) (P53634 25-134): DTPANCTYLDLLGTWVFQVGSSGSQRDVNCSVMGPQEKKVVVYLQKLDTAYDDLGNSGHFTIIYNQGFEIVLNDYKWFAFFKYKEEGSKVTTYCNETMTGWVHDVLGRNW
Chain of recombinant human DPPI (Cathepsin C) (P53634 395-463): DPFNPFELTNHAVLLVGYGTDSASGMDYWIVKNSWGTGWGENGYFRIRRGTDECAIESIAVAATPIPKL

## N#C[C@H](Cc1ccc(-c2ccc3c(c2)C2(CCN(C4COC4)CC2)OC3)cc1F)NC(=O)[C@H]1N[C@@H]2CC[C@H]1C2 [Example 1, (1S,2S,4R)—N-[(1S)-1-cyano-2-[2-fluoro-4-[1′-(oxetan-3-yl)spiro[1H-isobenzofuran-3,4′-piperidine]-5-yl]phenyl]ethyl]-3-azabicyclo[2.2.1]heptane-2-carboxamide]
[1]
  half-life at 1 μM: > 2.17 h
[2]
  Inhibition of neutrophil elastase activity in BALF lysate after the pretreatment with Cathepsin C inhibitor: 96%
[3]
  IC50: 1.1 nM
[4]
  IC50: 1 nM

## N#C[C@H](Cc1ccc(-c2ccc3c(n2)C2(CCN(C4COC4)CC2)OC3)cc1F)NC(=O)[C@H]1N[C@@H]2CC[C@H]1C2 [Example 25, (1S,2S,4R)—N-[(1S)-1-cyano-2-[2-fluoro-4-[1′-(oxetan-3-yl)spiro[5H-furo[3,4-b]pyridine-7,4′-piperidine]-2-yl]phenyl]ethyl]-3-azabicyclo[2.2.1]heptane-2-carboxamide]
[1]
  half-life at 1 μM: > 2.17 h
[2]
  Inhibition of neutrophil elastase activity in BALF lysate after the pretreatment with Cathepsin C inhibitor: 94%
[3]
  IC50: 1.8 nM
[4]
  IC50: 1.6 nM

## N#C[C@H](Cc1ccc(-c2ccc3c(c2)C2(CCN(C4COC4)CC2)OC3)cc1F)NC(=O)C12CCC(CC1)CN2 [Example 27, N-[(1S)-1-cyano-2-[2-fluoro-4-[1′-(oxetan-3-yl)spiro[1H-isobenzofuran-3,4′-piperidine]-5-yl]phenyl]ethyl]-3-azabicyclo[2.2.2]octane-4-carboxamide]
[1]
  half-life at 1 μM: 2 h
[3]
  IC50: 2.9 nM
[4]
  IC50: 0.7 nM
